The target in test [1] is T1, His6 PmFREP (PmFREP; PL5-1) (Penaeus monodon, UniProt A0A068LKH5, G184D).
T1 construct: full length without native signal peptide; XEEL signal peptide (cleaved), N-terminal His6 tag kept; native part starts GTTERTDTA (from primer); Trichoplusia ni cells; disulfide-linked dimer of pentamers
The test is described as follows: inhibition of human red blood cell (type A) agglutination. Conditions: 0.5 uM His6 PmFREP, 3% (v/v) red blood cells; multivalent avidity assay. It is filed as cell-based.

In test [2] the target is T1, His6 PmFREP (PmFREP; PL5-1). Kind of test: binding to GlcNAc affinity resin and competitive elution, western blot. As to conditions: 100 mM monosaccharide, 20 mM HEPES pH 7.5, 150 mM NaCl, 10 mM CaCl2.

The structures appear in SMILES notation.

T1 sequence (A0A068LKH5 entry or part of it G184D): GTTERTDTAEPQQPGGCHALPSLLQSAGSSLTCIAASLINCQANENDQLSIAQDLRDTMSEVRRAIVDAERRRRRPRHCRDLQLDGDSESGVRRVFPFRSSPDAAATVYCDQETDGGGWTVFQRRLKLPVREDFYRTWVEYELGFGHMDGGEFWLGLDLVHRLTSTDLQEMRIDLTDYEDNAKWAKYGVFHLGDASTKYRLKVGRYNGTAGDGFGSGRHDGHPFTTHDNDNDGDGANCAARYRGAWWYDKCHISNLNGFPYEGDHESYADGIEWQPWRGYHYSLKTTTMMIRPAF

Consider `CC(=O)N[C@H]1C(O)O[C@H](CO)[C@H](O)[C@@H]1O` (some centres unmarked) [GalNAc, N-acetylgalactosamine], for which the concentration inhibiting agglutination in test [1] is on record as ~ 10 mM. For the compound `CC(=O)N[C@H]1C(O)O[C@H](CO)[C@@H](O)[C@@H]1O` (some centres unmarked) [GlcNAc], in test [1], the concentration inhibiting agglutination was ~ 10 mM. In addition, the “binding to GlcNAc affinity resin and competitive elution, western blot” value in test [2] was “His6 PmFREP can bind GlcNAc as expected for fibrinogen-like lectin”. The compound `CC(=O)N[C@@H]1C(O)O[C@H](CO)[C@@H](O)[C@@H]1O` (some centres unmarked) [ManNAc, N-acetylmannosamine] came in with a concentration inhibiting agglutination in test [1] of 1 mM. On the same count and under the same terms, for `CC(=O)N[C@H]1[C@H]([C@H](O)[C@H](O)CO)OC(O)(C(=O)O)C[C@@H]1O` (some centres unmarked) [Neu5Ac, N-acetylneuraminic acid] the value was 5 mM.

(Values after PMC7858579, “Biochemical and structural characterization of a recombinant fibrinogen-related lectin from Penaeus monodon” (Scientific Reports, 2021).)
